Columns and labels:
[1] = target: T1, recombinant human plasminogen activator inhibitor-1 (Homo sapiens, UniProt P05121); assay: Primary screen for the PAI-1 inhibition (residual tPA activity, chromogenic Spectrozyme-tPA); assay type: biochemical; details: 25 uM test compound; pH 6.6 buffer, 140 nM PAI-1, 70 nM tPA
T1 construct: purchased Molecular Innovations, Royal Oak, Mich
Experimental: Primary Screen for the PAI-1 Inhibition
Test compounds were dissolved in DMSO at a final concentration of 10 mM, then diluted 100× in physiologic buffer. The inhibitory assay was initiated by the addition of the test compound (1-100 μM final concentration, maximum DMSO concentration of 0.2%) in a pH 6.6 buffer containing 140 nM recombinant human plasminogen activator inhibitor-1 (Molecular Innovations, Royal Oak, Mich.). Following a 1 hour incubation at room temperature, 70 nM of recombinant human tissue plasminogen activator (tPA) was added, and the combination of the test compound, PAI-1 and tPA was incubated for an additional 30 minutes. Following the second incubation, Spectrozyme-tPA (American Diagnostica, Greenwich, Conn.), a chromogenic substrate for tPA, was added and absorbance was read at 405 nm at 0 and 60 minutes. Relative PAI-1 inhibition was equal to the residual tPA activity in the presence of the test compound and PAI-1. Control treatments included the complete inhibition of tPA by PAI-1 at the molar ratio employed (2:1), and the absence of any effect of the test compound on tPA alone.

T1 sequence (P05121 24-402): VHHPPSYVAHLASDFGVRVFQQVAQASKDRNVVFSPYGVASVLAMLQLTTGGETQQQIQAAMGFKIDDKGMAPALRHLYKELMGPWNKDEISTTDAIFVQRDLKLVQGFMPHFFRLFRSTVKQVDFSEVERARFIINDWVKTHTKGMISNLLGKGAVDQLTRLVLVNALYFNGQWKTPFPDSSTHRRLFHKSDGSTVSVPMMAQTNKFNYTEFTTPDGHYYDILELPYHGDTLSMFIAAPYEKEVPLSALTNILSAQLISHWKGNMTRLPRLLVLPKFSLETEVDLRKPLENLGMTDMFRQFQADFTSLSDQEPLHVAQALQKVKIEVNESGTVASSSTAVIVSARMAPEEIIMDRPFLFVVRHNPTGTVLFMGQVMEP

O=C(O)Cn1cc(C(=O)c2ccc(Cl)cc2)c2cc(-c3ccc(Cl)cc3)ccc21 [Example 1, [3-(4-chlorobenzoyl)-5-(4-chlorophenyl)-1H-indol-1-yl]acetic acid]
inhibition at 25 µM [1]: 47%
melting point: 255 to 257 °C

Cc1ccc(-c2ccc3c(c2)c(C(=O)c2cc4ccccc4s2)cn3CC(=O)O)cc1 [Example 2, [3-(Benzo[b]thiophene-2-carbonyl)-5-(4-methylphenyl)-1H-indol-1-yl]-acetic acid]
inhibition at 25 µM [1]: 45%

Cc1ccc(-c2ccc3c(c2)c(C(=O)c2ccc(Cl)cc2)cn3CC(=O)O)cc1 [Example 3, [3-(4-chlorobenzoyl)-5-(4-methylphenyl)-1H-indol-1-yl]-acetic acid]
inhibition at 25 µM [1]: 46%

— patent publication US7566791B2, “Substituted 3-carbonyl-1h-indol-1yl acetic acid derivatives as inhibitors of plasminogen activator inhibitor-1 (PAI-1)” (Wyeth, priority 2002, dated 2009)
